Consider 14 compounds from ChEMBL document CHEMBL1201862, “PubChem BioAssay data set” (2004).

In general, GI50 refers to the concentration that inhibits growth by half.

Structures can show the parent of a compound that is named as a salt.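 Test compounds were applied to cells in 96-well plates for 48 hours at 5 doses. GI50 marks 50% less growth.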 Activity calls are given as the source filed them. No stated cut-off is given here; in the data, active = GI50 up to about 1.1 µM and inactive = higher.

Some test systems named below: COLO 205; DMS-114; DMS-273; HCT-15; HOP-18; HOP-62; KM-20L2; LXFL 529; NCI-H522; SF-539; SK-MEL-28; SNB-78; SR; SW-620; TK-10; BT-549; DU-145; MCF7; MDA-MB-231; NCI/ADR-RES.
Holding throughout (assay): DTP human tumour cell line panel, 48 h

Consider `O=C1C2C3C=CC(C2C(=O)N1CO)C1C2C(=O)N(CO)C(=O)C2C31` (centres undefined), for which the GI50 is > 48.2 µM (inactive) in the assay with COLO 205; 42 µM (inactive) with DMS-114; > 44.5 µM (inactive) in the assay with DMS-273; 37 µM with HCT-15; 43.4 µM (inactive) in the assay with HOP-18; > 100 µM (inactive) in the assay with HOP-62. In addition, the GI50 is > 31.6 µM (inactive) in the assay with KM-20L2; > 81.1 µM (inactive) in the assay with LXFL 529; > 100 µM (inactive) in the assay on NCI-H522; > 61 µM (inactive) with SF-539; > 84.1 µM (inactive) with SK-MEL-28; > 100 µM (inactive) in the assay with SNB-78. For the same compound, the GI50 was 22.5 µM (inactive) with SR, 33.5 µM (inactive) with SW-620 and > 100 µM (inactive) with TK-10.
In the case of `O=C(O)C1c2ccccc2C(C(=O)O)c2ccccc21` (centres undefined), the GI50 in the assay with COLO 205 was > 100 µM (inactive); in the assay on DMS-114, > 100 µM (inactive); in the assay with DMS-273, > 100 µM (inactive); in the assay on HCT-15, > 100 µM; in the assay with HOP-18 it was > 100 µM (inactive); in the assay on HOP-62 it was > 100 µM (inactive). The GI50 in the assay with KM-20L2, in the assay with LXFL 529, in the assay on NCI-H522, in the assay on SF-539, with SNB-78 and with SR was > 100 µM (inactive) throughout. The GI50 with SW-620 and in the assay with TK-10 was > 100 µM (inactive) throughout.
In the case of `CC1=C(O)C(=O)c2cn(C)cc2C1=O`, the GI50 with COLO 205 is > 100 µM (inactive); in the assay on DMS-114, > 100 µM (inactive); in the assay with DMS-273, > 100 µM (inactive); in the assay on HCT-15, > 100 µM; in the assay with HOP-18 it was > 100 µM (inactive); in the assay on HOP-62 it was > 100 µM (inactive). The GI50 in the assay on KM-20L2, in the assay on LXFL 529, in the assay on SF-539, in the assay on SK-MEL-28, in the assay with SNB-78 and in the assay on SR was > 100 µM (inactive) throughout. Also, the GI50 in the assay on SW-620 and in the assay on TK-10 was > 100 µM (inactive) throughout.
As to `CC1=CC2CC(C)C1(C)CCc1ccoc12` (centres undefined), the GI50 with COLO 205 is > 100 µM (inactive); with DMS-114, > 100 µM (inactive); with DMS-273 it was > 100 µM (inactive); in the assay with HCT-15, > 100 µM; in the assay on HOP-18, > 100 µM (inactive); in the assay with HOP-62, > 100 µM (inactive). Further, the GI50 in the assay with KM-20L2, in the assay on LXFL 529, in the assay on SF-539, with SK-MEL-28, with SNB-78 and in the assay on SR was > 100 µM (inactive) each time. The GI50 in the assay on SW-620 and in the assay on TK-10 was > 100 µM (inactive) in each case.
With `Nc1ccn(CC(CO)CC(c2ccccc2)P(=O)(O)O)c(=O)n1` (centres undefined), the GI50 is > 100 µM (inactive) in the assay with COLO 205; > 100 µM (inactive) in the assay with DMS-114; > 100 µM (inactive) in the assay with DMS-273; > 100 µM in the assay on HCT-15; < 0.01 µM (active) in the assay with HOP-18; > 100 µM (inactive) in the assay with HOP-62. Moreover, the GI50 in the assay with KM-20L2, in the assay on LXFL 529, in the assay on NCI-H522, with SF-539, in the assay with SK-MEL-28 and with SNB-78 was > 100 µM (inactive) throughout. The GI50 with SW-620 and in the assay with TK-10 was > 100 µM (inactive) in each case.
On to `CNNCc1ccc(C(=O)NC(C)C)cc1` [PROCARBAZINE HYDROCHLORIDE], for which the GI50 is > 500 µM (inactive) with BT-549; > 500 µM (inactive) with COLO 205; > 500 µM (inactive) in the assay on DMS-273; > 500 µM (inactive) in the assay on DU-145; > 415 µM with HCT-15; 138 µM (inactive) in the assay on HOP-18. Further, the GI50 in the assay on HOP-62 was 383 µM (inactive); with KM-20L2, 380 µM (inactive); in the assay with LXFL 529 it was > 500 µM (inactive); in the assay on MCF7 it was > 486 µM (inactive); in the assay with MDA-MB-231, > 500 µM (inactive); with NCI-H522, > 500 µM (inactive). The GI50 with NCI/ADR-RES was > 500 µM (inactive); in the assay on SF-539 it was > 500 µM (inactive); in the assay with SK-MEL-28, > 500 µM (inactive); in the assay with SNB-78, > 500 µM (inactive); in the assay on SR it was > 375 µM (inactive); in the assay with SW-620, > 500 µM (inactive). For the same compound, in the assay on TK-10, the GI50 is > 500 µM (inactive).
As for `O=S1(=O)C(=C(c2ccccc2)c2ccccc2)S(=O)(=O)c2ccccc21`, the GI50 with COLO 205 is > 100 µM (inactive); in the assay with DMS-114, 65.3 µM (inactive); with DMS-273 it was > 100 µM (inactive); in the assay with HCT-15, > 100 µM; with HOP-18 it was 51.6 µM (inactive); in the assay on HOP-62 it was 23.2 µM (inactive). In addition, the GI50 is > 100 µM (inactive) in the assay on KM-20L2; 7.46 µM (inactive) in the assay with MCF7; > 100 µM (inactive) in the assay on NCI-H522; > 100 µM (inactive) in the assay on NCI/ADR-RES; 27.5 µM (inactive) in the assay with SF-539; > 100 µM (inactive) in the assay with SK-MEL-28. The figures for the GI50 in the assay on SNB-78 and in the assay with SW-620 were 39.8 µM (inactive) and > 100 µM (inactive), respectively.
`O=C(CC1(O)C(=O)Nc2ccc(Br)cc21)c1cccc([N+](=O)[O-])c1` (centres undefined): the GI50 with COLO 205 is > 100 µM (inactive); with DMS-273 it was 45.8 µM (inactive); in the assay on HCT-15, 56 µM; in the assay with HOP-18, 23.6 µM (inactive); with HOP-62 it was 49.5 µM (inactive); with KM-20L2 it was 74.6 µM (inactive). For the same compound, the GI50 in the assay with LXFL 529 was 22.5 µM (inactive); in the assay on NCI-H522, 22.2 µM (inactive); in the assay on SK-MEL-28, 35.8 µM (inactive); in the assay on SNB-78 it was 37.8 µM (inactive); with SW-620, 37.8 µM (inactive); in the assay with TK-10, > 100 µM (inactive).
On to `O=C1NC2CCC(C2)C1c1ccccc1` (centres undefined), for which the GI50 in the assay on COLO 205, with DMS-114, in the assay on DMS-273, with HOP-18, with LXFL 529 and with SF-539 was > 100 µM (inactive) in each case. Further, the GI50 in the assay on SK-MEL-28, in the assay with SNB-78, with SR, in the assay with SW-620 and in the assay with TK-10 was > 100 µM (inactive) each time.
With `COC(=O)C1=C(C[S+]([O-])c2ccccc2[N+](=O)[O-])ON(C)C1c1ccccc1` (centres undefined), the GI50 in the assay on COLO 205 was 43.7 µM (inactive); in the assay with DMS-114, 24.7 µM (inactive); in the assay on DMS-273, 28.1 µM (inactive); in the assay with HCT-15, 22.5 µM; with HOP-18, 52.2 µM (inactive); in the assay on HOP-62 it was > 100 µM (inactive). Besides, the GI50 was 21.5 µM (inactive) in the assay on KM-20L2; 42 µM (inactive) with LXFL 529; 18.4 µM (inactive) in the assay with NCI-H522; 27.3 µM (inactive) with SF-539; 82 µM (inactive) in the assay on SNB-78; 25.4 µM (inactive) in the assay on SW-620. Further, the GI50 in the assay with TK-10 is 35.7 µM (inactive).
Turning to `CCC12CCC(O)C1N(C)CCC2Sc1ccccc1` (centres undefined), the GI50 in the assay with COLO 205 is 80 µM (inactive); with DMS-114 it was 82.4 µM (inactive); in the assay with DMS-273, > 100 µM (inactive); in the assay with HCT-15 it was > 100 µM; with HOP-18, 46.7 µM (inactive); in the assay with HOP-62, > 100 µM (inactive). Also, the GI50 in the assay with KM-20L2 is 41.3 µM (inactive); with NCI-H522 it was > 100 µM (inactive); with SF-539 it was > 100 µM (inactive); with SK-MEL-28, 75.3 µM (inactive); in the assay on SNB-78 it was > 100 µM (inactive); with SW-620 it was > 100 µM (inactive). Besides, the GI50 with TK-10 is > 100 µM (inactive).
`CNc1ccc2ncccc2c1[N+](=O)[O-]`: the GI50 in the assay on DMS-114 is > 100 µM (inactive); in the assay with DMS-273 it was > 100 µM (inactive); in the assay on HCT-15 it was > 100 µM; in the assay with HOP-18, > 100 µM (inactive); in the assay on HOP-62, > 100 µM (inactive); in the assay with KM-20L2 it was > 100 µM (inactive). The GI50 in the assay on LXFL 529, with SF-539, in the assay with SK-MEL-28, in the assay with SNB-78, in the assay on SR and in the assay on SW-620 was > 100 µM (inactive) each time. The GI50 in the assay on TK-10 is > 100 µM (inactive).
Consider `C[n+]1c2ccccc2c(NC(CCCNC(=N)N)C(=O)O)c2ccccc21` (centres undefined), for which the GI50 in the assay with COLO 205 is > 100 µM (inactive); with DMS-114, > 100 µM (inactive); with DMS-273, > 100 µM (inactive); with HCT-15, > 100 µM; in the assay on HOP-18, > 100 µM (inactive); with HOP-62, > 100 µM (inactive). Further, the GI50 in the assay on KM-20L2 is > 100 µM (inactive); with LXFL 529 it was > 100 µM (inactive); with NCI-H522, 99.1 µM (inactive); in the assay on SF-539, > 100 µM (inactive); in the assay on SNB-78, > 100 µM (inactive); with SR, > 100 µM (inactive). In addition, the GI50 in the assay on SW-620 and with TK-10 was > 100 µM (inactive) throughout.
For `CC1=NOC(=O)/C1=C/c1ccc([N+](=O)[O-])cc1`, the GI50 in the assay with COLO 205 is > 100 µM (inactive); in the assay on DMS-114 it was > 100 µM (inactive); in the assay with DMS-273 it was > 100 µM (inactive); in the assay with HCT-15 it was > 100 µM; in the assay with HOP-18 it was > 100 µM (inactive); in the assay with HOP-62, > 100 µM (inactive). Also, the GI50 with KM-20L2, in the assay on NCI-H522, in the assay on SF-539, in the assay on SK-MEL-28, in the assay with SNB-78 and with SR was > 100 µM (inactive) in each case. For the same compound, the GI50 in the assay on SW-620 was 59 µM (inactive); with TK-10, > 100 µM (inactive).
